Data from patent US20240182420A1, “MICROBIOCIDAL ISONICOTINIC AMIDE DERIVATIVES” (SYNGENTA CROP PROTECTION AG, priority 2021, published 2024).

Experiments:
[1] = test system: Phaeosphaeria nodorum syn. Septoria nodorum; experiment: Phaeosphaeria nodorum syn. Septoria nodorum (glume blotch of wheat), wheat leaf segments, preventive; type: in vivo; conditions: Parastagonospora nodorum, foliar, 96 h, assessed 4 dpi, vs untreated control
Description: Wheat leaf segments are placed on agar in multiwell plates (24-well format) and sprayed with test solutions. After drying, the leaf disks are inoculated with a spore suspension of the fungus. After appropriate incubation the activity of a compound is assessed 4 dpi (days after inoculation) as preventive fungicidal activity.
The following compounds from Table T1 gave at least 80% control of Phaeosphaeria nodorum at 200 ppm when compared to untreated control under the same conditions, which sowed extensive disease development: • 1.1, 1.3, 1.7, 1.14, 1.39, 1.41, 1.86, 1.87, 1.92, 1.94, 1.95.

[2] = test system: Botryotinia fuckeliana syn. Botrytis cinerea; experiment: Botryotinia fuckeliana syn. Botrytis cinerea (grey mold on tomato), tomato plants; type: in vivo; conditions: tomato plants cv. Roter Gnom, inoculated two days after application, leaf area covered by disease 5-6 days after application
Description: 4-week old tomato plants cv. Roter Gnom are treated sprayed in a spray chamber with the formulated test compound diluted in water. The test plants are inoculated by spraying them with a spore suspension two days after application. The inoculated test plants are incubated at 20° C. and 95% rh in a greenhouse and the percentage leaf area covered by disease is assessed when an appropriate level of disease appears on untreated check plants (5-6 days after application).

[3] = test system: Alternaria solani; experiment: Alternaria solani (early blight of tomato), tomato leaf disks, preventive; type: in vivo; conditions: foliar, 96 h, assessed 4 dpi, vs untreated control
Description: Tomato leaf disks are placed on water agar in multiwell plates (24-well format) and sprayed with test solutions. After drying, the leaf disks are inoculated with a spore suspension of the fungus. After appropriate incubation the activity of a compound is assessed 4 dpi (days post inoculation) as preventive fungicidal activity.

[4] = test system: Botryotinia fuckeliana syn. Botrytis cinerea; experiment: Botryotinia fuckeliana syn. Botrytis cinerea (gray mould), liquid culture growth inhibition; type: cell-based; conditions: PDB nutrient broth, 24° C., 72 hrs, photometric, vs untreated control
Description: (§1) Conidia of the fungus from cryogenic storage were directly mixed into nutrient broth (PDB potato dextrose broth). A DMSO solution of the test compounds was placed into a microtiter plate (96-well format) and the nutrient broth containing the fungal spores was added to it. The test plates were incubated at 24° C. and the inhibition of growth was determined photometrically after 72 hrs.

[5] = test system: Sclerotinia sclerotiorum; experiment: Sclerotinia sclerotiorum (cottony rot, white mold), liquid culture growth inhibition; type: cell-based; conditions: PDB nutrient broth, 24° C., 72 hrs, 620 nm, vs untreated control
Description: as §1, with “Mycelial fragments” for “Conidia”, “fungus prepared” for “fungus”, “a fresh liquid culture” for “cryogenic storage”, “hrs at 620 nm.” for “hrs.”

[6] = test system: Glomerella lagenarium syn Colletotrichum lagenarium; experiment: Glomerella lagenarium syn. Colletotrichum lagenarium (anthracnose), liquid culture growth inhibition; type: cell-based; conditions: Colletotrichum orbiculare, PDB nutrient broth, 24° C., 72 hrs, 620 nm, vs untreated control
Description: as §1, with “hrs at 620 nm.” for “hrs.”

[7] = test system: Monographella nivalis syn. Microdochium nivale, Fusarium nivale; experiment: Monographella nivalis syn. Microdochium nivale (snow mould, foot rot), liquid culture growth inhibition; type: cell-based; conditions: PDB nutrient broth, 24° C., 72 hrs, 620 nm, vs untreated control
Description: as §1, with “hrs at 620 nm.” for “hrs.”

Structure (SMILES)	pest or weed control at 200 ppm [1] [%]	pest or weed control at 200 ppm [2] [%]	pest or weed control at 200 ppm [3] [%]	inhibition of growth at 20 ppm [4] [%]	inhibition of growth at 20 ppm [5] [%]	inhibition of growth at 20 ppm [6] [%]	inhibition of growth at 20 ppm [7] [%]
Cc1cncc(Oc2cccc(C3CC3)c2)c1C(=O)NCC(F)c1ccc(Cl)cc1Cl (centres unmarked) [Compound 1.7, 3-(3-cyclopropyl-phenoxy)-N-[2-(2,4-dichlorophenyl)-2-fluoro-ethyl]-5-methyl-pyridine-4-carboxamide]	≥ 80	≥ 50	≥ 80	≥ 80	≥ 80	≥ 80	
Cc1cccc(Oc2cnc(Cl)cc2C(=O)NCCc2cccc(Cl)c2)c1 [Compound 1.46, 2-chloro-N-[2-(3-chlorophenyl)ethyl]-5-(3-methylphenoxy) pyridine-4-carboxamide]						≥ 80	≥ 80
C#CC(C)(C)Oc1cncc(Oc2cccc(C3CC3)c2)c1C(=O)NCC(F)c1ccc(Cl)cc1Cl (centres unmarked) [Compound 1.92, 3-(3-cyclopropyl-phenoxy)-N-[2-(2,4-dichlorophenyl)-2-fluoro-ethyl]-5-(1,1-dimethylprop-2-ynoxy)pyridine-4-carboxamide]	≥ 80			≥ 80	≥ 80	≥ 80	≥ 80
O=C(NCC(F)c1ccc(Cl)cc1Cl)c1cc(Br)ncc1Oc1cccc(C2CC2)c1 (centres unmarked) [Compound 1.5, 2-bromo-5-(3-cyclopropyl-phenoxy)-N-[2-(2,4-dichlorophenyl)-2-fluoro-ethyl]pyridine-4-carboxamide]		≥ 50		≥ 80	≥ 80	≥ 80	
O=C(NCC(F)c1ccc(Cl)cc1Cl)c1cc(Cl)ncc1Oc1cccc(C2CC2)c1F (centres unmarked) [Compound 1.70, 2-chloro-5-(3-cyclopropyl-2-fluoro-phenoxy)-N-[2-(2,4-dichlorophenyl)-2-fluoro-ethyl]pyridine-4-carboxamide]		≥ 50		≥ 80	≥ 80		≥ 80
Cc1ccc(C(F)CNC(=O)c2cc(C)ncc2Oc2cccc(C3CC3)c2)c(Cl)c1 (centres unmarked) [Compound 1.60, N-[2-(2-chloro-4-methyl-phenyl)-2-fluoro-ethyl]-5-(3-cyclopropyl-phenoxy)-2-methyl-pyridine-4-carboxamide]		≥ 50		≥ 80		≥ 80	≥ 80
O=C(NCC(F)c1ccc(Cl)cc1Cl)c1c(Oc2cccc(C3CC3)c2)cncc1Oc1cccc(C2CC2)c1 (centres unmarked) [Compound 1.84, 3,5-bis(3-cyclopropyl-phenoxy)-N-[2-(2,4-dichlorophenyl)-2-fluoro-ethyl]pyridine-4-carboxamide]		≥ 50		≥ 80		≥ 80	≥ 80
CCc1cncc(Oc2cccc(C3CC3)c2)c1C(=O)NCC(F)c1ccc(Cl)cc1Cl (centres unmarked) [Compound 1.79, 3-(3-cyclopropyl-phenoxy)-N-[2-(2,4-dichlorophenyl)-2-fluoro-ethyl]-5-ethyl-pyridine-4-carboxamide]		≥ 50		≥ 80	≥ 80	≥ 80	≥ 80
Cc1cccc(Oc2cnc(C)cc2C(=O)NCCc2ccc(Cl)cc2Cl)c1 [Compound 1.2, N-[2-(2,4-dichlorophenyl)ethyl]-2-methyl-5-(3-methylphenoxy) pyridine-4-carboxamide]				≥ 80	≥ 80	≥ 80	
Cc1cc(C)cc(CCNC(=O)c2cc(Cl)ncc2Oc2cccc(C3CC3)c2)c1 [Compound 1.50, 2-chloro-5-(3-cyclopropylphenoxy)-N-[2-(3,5-dimethylphenyl)ethyl]pyridine-4-carboxamide]							≥ 80
C#Cc1cc(C(=O)NCC(F)c2ccc(Cl)cc2Cl)c(Oc2cccc(C3CC3)c2)cn1 (centres unmarked) [Compound 1.86, 5-(3-cyclopropyl-phenoxy)-N-[2-(2,4-dichlorophenyl)-2-fluoro-ethyl]-2-ethynyl-pyridine-4-carboxamide]	≥ 80			≥ 80		≥ 80	≥ 80
O=C(NCC(F)c1ccc(Cl)cc1Cl)c1c(Br)cncc1Oc1cccc(C2CC2)c1 (centres unmarked) [Compound 1.8, 3-bromo-5-(3-cyclopropyl-phenoxy)-N-[2-(2,4-dichlorophenyl)-2-fluoro-ethyl]pyridine-4-carboxamide]		≥ 50		≥ 80	≥ 80	≥ 80	
O=C(NCC(F)c1ccc(Cl)cc1Cl)c1c(O)cncc1Oc1cccc(C2CC2)c1 (centres unmarked) [Compound 1.96, 3-(3-cyclopropyl-phenoxy)-N-[2-(2,4-dichlorophenyl)-2-fluoro-ethyl]-5-hydroxy-pyridine-4-carboxamide]				≥ 80	≥ 80	≥ 80	≥ 80
COc1cc(C(=O)NCC(F)c2ccc(Cl)cc2Cl)c(Oc2cccc(C3CC3)c2)cn1 (centres unmarked) [Compound 1.98, 5-(3-cyclopropyl-phenoxy)-N-[2-(2,4-dichlorophenyl)-2-fluoro-ethyl]-2-methoxy-pyridine-4-carboxamide]			≥ 80	≥ 80		≥ 80	
N#Cc1cc(C(=O)NCC(F)c2ccc(Cl)cc2Cl)c(Oc2cccc(C3CC3)c2)cn1 (centres unmarked) [Compound 1.20, 2-cyano-5-(3-cyclopropyl-phenoxy)-N-[2-(2,4-dichlorophenyl) 2-fluoro-ethyl]pyridine-4-carboxamide]		≥ 50	≥ 80	≥ 80	≥ 80	≥ 80	
COc1ccc(CCNC(=O)c2cc(Cl)ncc2Oc2ccccc2)cc1OC [Compound 1.44, 2-chloro-N-[2-(3,4-dimethoxyphenyl)ethyl]-5-phenoxy-pyridine-4-carboxamide]							≥ 80
Cc1cc(C(=O)NCCc2ccc(Cl)cc2Cl)c(Oc2cccc(C3CC3)c2)cn1 [Compound 1.13, 5-(3-cyclopropyl-phenoxy)-N-[2-(2,4-dichlorophenyl)ethyl]-2-methyl-pyridine-4-carboxamide]		≥ 50		≥ 80	≥ 80	≥ 80	≥ 80
CCc1cc(C(=O)NCC(F)c2ccc(Cl)cc2Cl)c(Oc2cccc(C3CC3)c2)cn1 (centres unmarked) [Compound 1.81, 5-(3-cyclopropyl-phenoxy)-N-[2-(2,4-dichlorophenyl)-2-fluoro-ethyl]-2-ethyl-pyridine-4-carboxamide]		≥ 50		≥ 80	≥ 80	≥ 80	≥ 80
N#Cc1ccc(Oc2cnc(Cl)cc2C(=O)NCC(F)c2ccc(Cl)cc2Cl)cc1 (centres unmarked) [Compound 1.63, 2-chloro-5-(4-cyanophenoxy)-N-[2-(2,4-dichlorophenyl)-2-fluoro-ethyl]pyridine-4-carboxamide]						≥ 80	≥ 80
Cc1ccc(C(F)CNC(=O)c2cc(Cl)ncc2Oc2cccc(C3CC3)c2)c(C)c1 (centres unmarked) [Compound 1.78, 2-chloro-5-(3-cyclopropyl-phenoxy)-N-[2-(2,4-dimethylphenyl)-2-fluoro-ethyl]pyridine-4-carboxamide]				≥ 80		≥ 80	≥ 80
